Source: patent US20120230951A1 (priority 2011, published 2012)

tested on: GT-1a pRLuc H771b 75 S/I subgenomic replicon cell line; experiment: HCV GT-1a replicon luciferase reporter assay; type: cell-based; settings: Hepatitis C virus, GT1A, 72 h, read-out: GT-1a (IC50) (nM)
Text: Determination of compounds HCV GT1b inhibitory replicon activity using the replicon luciferase reporter assay
The 2209-23 cell line was developed at Roche by stable transfection of the hepatoma cell line Huh-7 with a GT-1b Con1 subgenomic bicistronic replicon as previously described. Subgenomic replicon cell line was established in cured Huh7 cells, obtained from R. Bartenschlager (J. Virol. 2003 March; 77 (5):3007-19) The GT-1a H77 subgenomic replicon vector pRLuc H771b 75 S/I, was created by replacing the non structural region of the GT-1b Con1 subgenomic replicon by the one of the H77 strain, except for the first 75 amino acids of the NS3 protein that are from GT-1b Con1 strain. (J. Virol. 2001 77:5352-59) The GT-1a pRLuc H771b 75 S/I subgenomic replicon cell line was established in cured Huh7 cells, obtained from R. Bartenschlager. (J. Virol. 2003 March; 77 (5):3007-19)
All the subgenomic replicon cell lines were cultured in Dulbecco's Modified Eagle Medium (DMEM-Glutamax™-I; Invitrogen Cat #10569-010). The medium was supplemented with 10% Fetal Bovine Serum (Invitrogen Cat #10082-147), 1% penicillin/streptomycin (Mediatech Cat #30-002-CI) and 500 μg/ml of G418 (Mediatech Cat #30-234-CI). Cells were maintained at 37° C. in a humidified 5% CO2 atmosphere.
2209-23 cells were plated at a cell density of 5000 cells per well in 96 well plates (Becton Dickinson, Cat #35 3296). Cells were plated in 90 μl of Dulbecco's Modified Eagle Medium (DMEM-Glutamax™-I), (Invitrogen Cat #10569-010) medium was supplemented with 5% Fetal Bovine Serum (Invitrogen Cat #10082-147), 1% penicillin/streptomycin (Mediatech Cat #30-002-CI). The pRluc H771b 75 S/I cells were plated in 96-well plate at 3000 cells/well in DMEM-Glutamax™-I containing 5% FBS and 1% penicillin/streptomycin in 90 μl final volume. Cells were allowed to equilibrate for 24 hours at 37° C. and 5% CO2 at which time compounds were added. Compounds (or medium as a control) were added 24 hours post-plating in 3 fold dilutions at a final DMSO concentration of 1% in 10 ul volume. Renilla luciferase reporter signal was read 72 hours after addition of compounds using the Renilla Luciferase Assay System (Promega, cat #E2820). EC50 values were defined as the compound concentration at which a 50% reduction in the levels of renilla luciferase reporter was observed as compared to control samples in the absence of compound and was determined by non-linear fitting of compound dose-response data. The EC50 was approximated if maximum percentage inhibition was less than 90% and more than 70%.

Point of comparison: COC(=O)N[C@H]1CCc2cccc3c2N(C1=O)[C@H](c1nc2ccc(-c4ccc(-c5ccc(-c6cnc([C@@H]7CC(F)(F)CN7C(=O)[C@@H](NC(=O)OC)C(C)C)[nH]6)cc5)nc4)cc2[nH]1)C3 [Compound I-13, ((2S,5S)-2-{6-[6-(4-{2-[(S)-1-((S)-2-Methoxycarbonylamino-3-methyl-butyryl)-4,4-difluoro-pyrrolidin-2-yl]-3H-imidazol-4-yl}-phenyl)-pyridin-3-yl]-1H-benzoimidazol-2-yl}-4-oxo-1,2,4,5,6,7-hexahydro-azepino[3,2,1-hi]indol-5-yl)-carbamic acid methyl ester], IC50 41.8 nM. Against it:
- COC(=O)NC(C(=O)N1CCCC1c1ncc(-c2ccc(-c3ccc(-c4cnc([C@@H]5Cc6cc(C#N)cc7c6N5C(=O)[C@@H](NC(=O)OC)CC7)[nH]4)cc3)cc2)[nH]1)C(C)C (stereo in doubt) [Compound I-26, {(2S,5S)-9-Cyano-2-[5-(4′-{2-[(R)-1-((R)-2-methoxycarbonylamino-3-methyl-butyryl)-pyrrolidin-2-yl]-3H-imidazol-4-yl}-biphenyl-4-yl)-1H-imidazol-2-yl]-4-oxo-1,2,4,5,6,7-hexahydro-azepino[3,2,1-hi]indol-5-yl}-carbamic acid methyl ester] — 5.4-fold lower, 7.71 nM
- COC(=O)N[C@H]1CCc2cccc3c2N(C1=O)[C@H](c1ncc(-c2ccc(-c4ccc(-c5cnc([C@@H]6CCCN6C(=O)[C@@H](NC(=O)OC)[C@@H](C)O)[nH]5)cc4)cc2)[nH]1)C3 (stereo in doubt) [Compound I-50, {(2S,5S)-2-[5-(4-{2-[(S)-1-((S)-3-Hydroxy-2-methoxycarbonylamino-butyl)-pyrolidin-2-yl]-3H-imidazol-4-yl}-biphenyl-4-yl)-1H-imidazol-2-yl]-4-oxo-1,2,4,5,6,7-hexahydro-azepino[3,2,1-hi]indol-5-yl}-carbamic acid methyl ester] — 6.3-fold lower, 6.62 nM
- COC(=O)NC(C(=O)N1CCOC[C@H]1c1ncc(-c2ccc(-c3ccc(-c4cnc([C@@H]5Cc6cccc7c6N5C(=O)[C@@H](NC(=O)OC)CC7)[nH]4)cc3)cc2)[nH]1)c1ccccc1 (stereo in doubt) [Compound I-63, {(2S,5S)-2-[5-(4′-{2-[(R)-4-((S)-2-Methoxycarbonylamino-2-phenyl-acetyl)-morpholin-3-yl]-3H-imidazol-4-yl}-biphenyl-4-yl)-1H-imidazol-2-yl]-4-oxo-1,2,4,5,6,7-hexahydro-azepino[3,2,1-hi]indol-5-yl}-carbamic acid methyl ester] — 5.7-fold lower, 7.3 nM
- COC(=O)N[C@H]1CCc2cccc3c2N(C1=O)[C@H](c1ncc(-c2ccc(-c4ccc(-c5cnc([C@@H]6C[C@H](F)CN6C(=O)[C@@H](NC(=O)OC)C(C)C)[nH]5)cc4)cc2)[nH]1)C3 [Compound I-1, {(2S,5S)-2-[5-(4′-{2-[(2S,4S)-4-Fluoro-1-((S)-2-methoxycarbonylamino-3-methyl-butyryl)-pyrrolidin-2-yl]-3H-imidazol-4-yl}biphenyl-4-yl)-1H-imidazol-2-yl]-4-oxo-1,2,4,5,6,7-hexahydro-azepino[3,2,1-hi]indol-5-yl}-carbamic acid methyl ester] — 6.6-fold lower, 6.33 nM
- COC(=O)N[C@H]1CCc2cccc3c2N(C1=O)[C@H](c1ncc(-c2ccc(-c4ccc(-c5cnc([C@@H]6C[C@@H](F)CN6C(=O)[C@@H](NC(=O)OC)C(C)C)[nH]5)cc4)cc2)[nH]1)C3 [Compound I-2, {(2S,5S)-2-[5-(4′-{2-[(2S,4R)-4-Fluoro-1-((S)-2-methoxycarbonylamino-3-methyl-butyryl)-pyrrolidin-2-yl]-3H-imidazol-4-yl}-biphenyl-4-yl)-1H-imidazol-2-yl]-4-oxo-1,2,4,5,6,7-hexahydro-azepino[3,2,1-hi]indol-5-yl}-carbamic acid methyl ester] — 2.3-fold lower, 18.5 nM
- COC(=O)N[C@H]1CCc2cccc3c2N(C1=O)[C@H](c1ncc(-c2ccc(-c4ccc5nc([C@@H]6CCCN6C(=O)[C@@H](NC(=O)OC)C(C)C)[nH]c5c4)cc2)[nH]1)C3 [Compound I-3, {(2S,5S)-2-[5-(4-{2-[(S)-1-((S)-2-Methoxycarbonylamino-3-methyl-butyryl)-pyrrolidin-2-yl]-3H-benzoimidazol-5-yl}-phenyl)-1H-imidazol-2-yl]-4-oxo-1,2,4,5,6,7-hexahydro-azepino[3,2,1-hi]indol-5-yl}-carbamic acid methyl ester] — 16-fold higher, 660 nM
- COC(=O)N[C@H]1CCc2cccc3c2N(C1=O)[C@H](c1ncc(-c2ccc(-c4ccc(-c5ccc6nc([C@@H]7CC(F)(F)CN7C(=O)[C@@H](NC(=O)OC)C(C)C)[nH]c6c5)cc4)cc2)[nH]1)C3 [Compound I-4, {(2S,5S)-2-[5-(4′-{2-[(S)-4,4-Difluoro-1-((S)-2-methoxycarbonylamino-3-methyl-butyryl)-pyrrolidin-2-yl]-3H-benzoimidazol-5-yl}-biphenyl-4-yl)-1H-imidazol-2-yl]-4-oxo-1,2,4,5,6,7-hexahydro-azepino[3,2,1-hi]indol-5-yl}-carbamic acid methyl ester] — 10-fold lower, 4.11 nM
- COC(=O)N[C@H]1CCc2cccc3c2N(C1=O)[C@H](c1ncc(-c2ccc(-c4ccc(-c5ccc6nc([C@@H]7CCCN7C(=O)[C@@H](NC(=O)OC)C(C)C)[nH]c6c5)nc4)cc2)[nH]1)C3 [Compound I-7, ((2S,5S)-2-{5-[4-(6-{2-[(S)-1-((S)-2-Methoxycarbonylamino-3-methyl-butyryl)-pyrrolidin-2-yl]-3H-benzoimidazol-5-yl}-pyridin-3-yl)-phenyl]-1H-imidazol-2-yl}-4-oxo-1,2,4,5,6,7-hexahydro-azepino[3,2,1-hi]indol-5-yl)-carbamic acid methyl ester] — within 1.5-fold, 32.2 nM
- COC(=O)N[C@H]1CCc2cccc3c2N(C1=O)[C@H](c1ncc(-c2ccc(-c4ccc(-c5cnc([C@@H]6CC7(CN6C(=O)[C@@H](NC(=O)OC)C(C)C)OCCO7)[nH]5)cc4)cc2)[nH]1)C3 [Compound I-8, {(2S,5S)-2-[5-(4′-{2-[(S)-7-((S)-2-Methoxycarbonylamino-3-methyl-butyryl)-1,4-dioxa-7-aza-spiro[4.4]non-8-yl]-3H-imidazol-4-yl}-biphenyl-4-yl)-1H-imidazol-2-yl]-4-oxo-1,2,4,5,6,7-hexahydro-azepino[3,2,1-hi]indol-5-yl}-carbamic acid methyl Ester] — 16-fold lower, 2.54 nM
- COC(=O)N[C@H]1CCc2cccc3c2N(C1=O)[C@H](c1nc2ccc(-c4ccc(-c5ccc(-c6cnc([C@@H]7CCCN7C(=O)[C@@H](NC(=O)OC)C(C)C)[nH]6)cc5)nc4)cc2[nH]1)C3 [Compound I-12, ((2S,5S)-2-{6-[6-(4-{2-[(S)-1-((S)-2-Methoxycarbonylamino-3-methyl-butyryl)-pyrrolidin-2-yl]-3H-imidazol-4-yl}-phenyl)-pyridin-3-yl]-1H-benzoimidazol-2-yl}-4-oxo-1,2,4,5,6,7-hexahydro-azepino[3,2,1-hi]indol-5-yl)-carbamic acid methyl ester] — 2.2-fold lower, 18.6 nM
- COC(=O)N[C@H]1CCc2cccc3c2N(C1=O)[C@H](c1ncc(-c2cnc(-c4ccc(-c5cnc([C@@H]6CCCN6C(=O)[C@@H](NC(=O)OC)C(C)C)[nH]5)cc4)nc2)[nH]1)C3 [Compound I-15, ((2S,5S)-2-{5-[2-(4-{2-[(S)-1-((S)-2-Methoxycarbonylamino-3-methyl-butyryl)-pyrrolidin-2-yl]-3H-imidazol-4-yl}-phenyl)-pyrimidin-5-yl]-1H-imidazol-2-yl}-4-oxo-1,2,4,5,6,7-hexahydro-azepino[3,2,1-hi]indol-5-yl)-carbamic acid methyl ester] — 3.1-fold lower, 13.4 nM
